Source: the NIST ThermoML archive (doi:10.1021/acs.jced.8b00142)
Numbers after ± are expanded uncertainties.

How the values were obtained:
[1] = 86 kPa, Liquid, Vibrating tube method
[2] = wn = mass fraction of the nth substance listed; conditions: 86 kPa, Liquid, Vibrating tube method

| Compound | mass density ([1]; 298.15 K) | mass density ([1]; 313.15 K) | mass density ([1]; 323.15 K) | mass density ([1]; 333.15 K) | mass density ([1]; 343.15 K) | mass density ([2]; 298.15 K, w1 = 0.2573) | mass density ([2]; 298.15 K, w1 = 0.3) | mass density ([2]; 298.15 K, w1 = 0.5) | mass density ([2]; 313.15 K, w1 = 0.2573) | mass density ([2]; 313.15 K, w1 = 0.3) | mass density ([2]; 313.15 K, w1 = 0.5) | mass density ([2]; 323.15 K, w1 = 0.3) | mass density ([2]; 323.15 K, w1 = 0.5) | mass density ([2]; 333.15 K, w1 = 0.3) | mass density ([2]; 333.15 K, w1 = 0.5) | mass density ([2]; 343.15 K, w1 = 0.3) | mass density ([2]; 343.15 K, w1 = 0.5) | mass density ([2]; 348.17 K, w1 = 0.2573) |
| --- | --- | --- | --- | --- | --- | --- | --- | --- | --- | --- | --- | --- | --- | --- | --- | --- | --- | --- |
| CCCC[n+]1ccccc1.F[B-](F)(F)F [1-butylpyridinium tetrafluoroborate] | 1213.9 ± 4.2 kg/m3 | 1203.8 ± 4.2 kg/m3 | 1197 ± 4.2 kg/m3 | 1190.3 ± 4.2 kg/m3 | 1183.6 ± 4.2 kg/m3 | – | – | – | – | – | – | – | – | – | – | – | – | – |
| CN(CCO)CCO [N-methyldiethanolamine] | 1036.4 ± 4.1 kg/m3 | 1025.1 ± 4.1 kg/m3 | 1017.5 ± 4.1 kg/m3 | 1009.9 ± 4.1 kg/m3 | 1002.2 ± 4.1 kg/m3 | – | – | – | – | – | – | – | – | – | – | – | – | – |
| CN(CCO)CCO [N-methyldiethanolamine] + O | – | – | – | – | – | 1020.5 ± 4 kg/m3 | 1024.7 ± 4 kg/m3 | 1042.5 ± 4 kg/m3 | 1013.5 ± 4 kg/m3 | 1017.1 ± 4 kg/m3 | 1032.8 ± 4 kg/m3 | 1009.6 ± 4 kg/m3 | 1026 ± 4 kg/m3 | 1002.7 ± 4 kg/m3 | 1018.7 ± 4 kg/m3 | 995.1 ± 4 kg/m3 | 1011.2 ± 4 kg/m3 | 988.9 ± 4 kg/m3 |
